Reference: patent US4558066A, “Treatment and prevention of ocular hypertension” (priority 1984, dated 1985)
Structures can show the parent of a compound that is named as a salt. One block for each compound: values may come before it.

Key:
[1] = system: intraocular pressure; assay: Reduction of intraocular pressure in rabbits (pneuma-tonometer); format: in vivo, normal albino white New Zealand rabbits; settings: rabbit
Procedure: Two groups of normal albino white New Zealand rabbits were used for this study.
Experimental group: 8 animals
At time 0, intraocular pressure of both eyes of each animal in control and experimental groups was determined.
All animals received the treatment either with saline (control group) or the tested compound (experimental group) immediately after 0 hour intraocular pressure reading. Control group received 50 μl of vehicle in both eyes. Experimental animals received 50 μl of vehicle in the left eyes and 50 μl of 1% solution of tested compound in the right eyes.
Intraocular pressure was measured at 30 minutes, 1, 2, and 4 hours.
The effects of tested drug on intraocular pressure of the rabbit was determined using a Digilab Model 30D pneuma-tonometer. Initial IOP readings were obtained in all animals after the administration of 50 μl of 0.5% Opthaine (proparacaine hydrochloride). A group of 4 rabbits served as controls and were treated with 50 μl of saline in both eyes. Eight additional rabbits received 50 μl of test drug in the right eye, and 50 μl of drug vehicle was administered in the contralateral left eye. IOP readings were made 30 minutes, 1 hours, 2 hours, and 4 hours after drug administration.
This procedure permitted the comparison of drug treated eye with the contralateral vehicle treated eye, and also with saline treated eye. For purposes of statistical analysis comparisons were made between the drug treated IOP values and vehicle treated contralateral eyes and also the saline treated IOP values.

[2] = system: intraocular pressure; assay: Intraocular pressure in anesthetized dogs after ocular administration; format: in vivo, mongrel dogs; settings: anesthetized dog
Procedure: (§1) In the present studies, the cardiovascular and intraocular pressure effects of Timoptic (Timolol) a Merck β-blocker marketed for treatment of glaucoma, and ±2-[(3,4-methylenedioxy)phenethyl]-5-[(3-carboxamido-4-hydroxy)-α-hydroxybenzyl]pyrrolidine were evaluated in anesthetized dogs to determine if the compounds exert systemic effects after ocular administration.
(§2) Mongrel dogs were anesthetized with sodium pentobarbital (36 mg/kg, i.v.). The trachea was intubated and the dog respired with room air if necessary (20 cc/kg, 16x/min). A femoral vein was cannulated for injection of drugs and a femoral artery for measurement of systolic blood pressure. Heart rate was recorded by a cardiotachometer triggered by the R-wave of a limb lead II ECG. Intraocular pressure measurements were made with a Digilab model 30-D Pneuma-Tonometer.
(§3) Timolol and ±2-[(3,4-methylenedioxy)phenethyl]-5-[(3-carboxamido-4-hydroxy)-α-hydroxybenzyl]pyrrolidine were dissolved in distilled water. Isoproterenol and norepinephrine were dissolved in normal saline.
(§4) Isoproterenol was administered i.v. at half-log interval doses from 0.0158 μg/kg to 0.5 μg/kg.

[3] = set-up: species or system mongrel dogs; settings: dog, in vivo
Procedure: as §1, §2, §3, §4

[4] = system: isoproterenol responses; set-up: species or system mongrel dogs; settings: dog, in vivo
Procedure: as §1, §2, §3, §4

[5] = system: norepinephrine responses; set-up: species or system mongrel dogs; settings: dog, in vivo
Procedure: as §1, §2, §3, §4

[6] = system: eye; set-up: species or system mongrel dogs; settings: dog, in vivo
[7] = topical; PDR; cited from earlier work
[8] = cited from earlier work
[9] = administered to the eye at 0.5, 1 and 2%

- Systemic effect (conclusion) [3]: modest, if any systemic effect
- Dose relation of inhibition of isoproterenol responses [4]: not dose related
- Inhibition of isoproterenol responses [4]: some inhibition
- Dose relation of inhibition of norepinephrine responses [5]: not dose related
- Inhibition of norepinephrine responses [5]: some inhibition
SMILES: NC(=O)c1cc(C(O)C2CCC(CCc3ccc4c(c3)OCO4)N2)ccc1O (racemic) [±2-[(3,4-methylenedioxy)phenethyl]-5-[(3-carboxamido-4-hydroxy)-α-hydroxybenzyl]pyrrolidine]
- Intraocular pressure, Experimental O.D. (right, treated eye) ([1]; 0 time reading before dosing of 50 μl of 1% solution (baseline), control O.D. 18.8, contralateral vehicle eye 18): 17.6 mmHg
- Effect on intraocular pressure in right (treated) eyes ([1]; 1% solution): decreased significantly intraocular pressure
- Intraocular pressure, Experimental O.D. (right, treated eye) ([1]; 50 μl of 1% solution, 30 min, control O.D. 18.3, contralateral vehicle eye 18.1): 18.9 mmHg
- Intraocular pressure, Experimental O.D. (right, treated eye) ([1]; 50 μl of 1% solution, 1 hour, control O.D. 19.5, contralateral vehicle eye 19.8): 17.1 mmHg
- Intraocular pressure, Experimental O.D. (right, treated eye) ([1]; 50 μl of 1% solution, 2 hours, control O.D. 19.8, contralateral vehicle eye 17.3): 14.4 mmHg
- Intraocular pressure, Experimental O.D. (right, treated eye) ([1]; 50 μl of 1% solution, 4 hours, control O.D. 19.8, contralateral vehicle eye 18.8): 15.5 mmHg
- Decrease of IOP relative to Timolol [2, 9]: to a lesser extent than Timolol
- Effect on intraocular pressure [2, 9]: decreased IOP
- Effect on intraocular pressure (conclusion) ([2]; at the doses tested): lowered intraocular pressure
- Baseline blood pressure compared with control dogs [3]: differed little from control dogs
- Baseline heart rate compared with control dogs [3]: differed little from control dogs
- Eye irritation [6]: no irritation to the eye

SMILES: CC(C)(C)NC[C@H](O)COc1nsnc1N1CCOCC1 [timolol maleate]
- Systemic side effects when applied topically [7]: can cause bronchospastic disease, bradyarrhythmia, cardiogenic shock, cardiac failure, etc.

- Inhibition of i.v. (systemic) isoproterenol challenges [4]: markedly inhibited
SMILES: CC(C)(C)NC[C@H](O)COc1nsnc1N1CCOCC1 [Timolol]
- Effect on intraocular pressure ([2]; administered to the eye at 0.5%): significant decreases in intraocular pressure
- Effect on baseline blood pressure [3]: marked decreases
- Effect on baseline heart rate [3]: marked decreases
- Time post-dose to nadir of blood pressure [3]: ≤ 90 min
- Time post-dose to nadir of heart rate [3]: ≤ 90 min
- Systemic absorption following ocular administration (indicated by inhibition of isoproterenol challenges) [4]: readily absorbed systemically following ocular administration
- Effect on cardiac failure ([8]; congestive heart failure patients, ocular application): intensify cardiac failure in congestive heart failure patients
- Systemic absorption after ocular application ([8]; human, in vivo): absorbed systemically after ocular application
- Effect on bronchospasm ([8]; patients suffering from brochospastic disorders, ocular application): brochospasm in patients suffering from brochospastic disorders
